SMILES strings stand for the structures.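 In this assay, cells in 96-well plates receive the compound at five concentrations for 48 hours. Endpoints are linearly interpolated between the surrounding concentrations. GI50 = concentration required for 50% inhibition of growth.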 Activity calls are given as the source filed them. Rule as the data show it: active = GI50 up to about 1.1 µM and inactive = higher. A value given as a limit tells only on which side of the number the result lay.

This is an account of results in ChEMBL document CHEMBL1201862, “PubChem BioAssay data set” (2004).

Among the test systems are A549; HCT-15; HOP-92; HT-29; Hs-578T; K562; KM12; LOX IMVI; M14; MDA-MB-231; MDA-MB-435; NCI-H522; NCI/ADR-RES; PC-3; SK-MEL-28; SNB-19; SR; U-251; RXF 393; SF-539.
What all share (assay): DTP human tumour cell line panel, 48 h

For the molecule `CCSc1n/c(=C\c2ccco2)c2nncn12`, the GI50 was > 100 µM (inactive) in the assay with A549; greater than 100 µM with HCT-15; 40.7 µM (inactive) in the assay on HOP-92; > 100 µM (inactive) in the assay on HT-29; > 100 µM (inactive) with Hs-578T; > 100 µM (inactive) in the assay on K562. For the same molecule, the GI50 in the assay with KM12, with LOX IMVI, with M14, in the assay with MDA-MB-231, in the assay on MDA-MB-435 and in the assay on NCI-H522 was > 100 µM (inactive) in each case. Also, the GI50 in the assay on NCI/ADR-RES, with PC-3, in the assay on SK-MEL-28, in the assay with SNB-19, in the assay with SR and in the assay on U-251 was > 100 µM (inactive) throughout.

`COC(=O)C1=C(C(=O)OC)C2OC1C1C2C2(C)C(C)=C(C)C1(C)[S+]2[O-]` (centres undefined): the GI50 with A549 was 22.3 µM (inactive); in the assay on HCT-15, 4.18 µM; in the assay with HOP-92 it was 15.8 µM (inactive); in the assay on HT-29, 6.47 µM (inactive); in the assay on Hs-578T, 20.8 µM (inactive); in the assay with K562, 4.9 µM (inactive). The GI50 is 19 µM (inactive) in the assay with KM12; 16.6 µM (inactive) in the assay on LOX IMVI; 8.59 µM (inactive) in the assay on M14; 22.5 µM (inactive) in the assay with MDA-MB-231; 6.73 µM (inactive) in the assay with MDA-MB-435; 2.14 µM (inactive) in the assay with NCI-H522. Besides, the GI50 is 23.7 µM (inactive) in the assay with NCI/ADR-RES; 16.1 µM (inactive) with PC-3; 3.37 µM (inactive) with RXF 393; 5.51 µM (inactive) in the assay with SF-539; 19.1 µM (inactive) with SK-MEL-28; 30.3 µM (inactive) with SNB-19. Also, in the assay with U-251, the GI50 was 13.8 µM (inactive).

With `CCC[C@H](N[S+]([O-])c1ccc(C)cc1)C(C(=O)OCC)=C(c1ccccc1)c1ccccc1` (some centres undefined), the GI50 in the assay with A549 was 21.5 µM (inactive); in the assay on HCT-15 it was 25.2 µM; in the assay with HOP-92, 15.1 µM (inactive); with HT-29, 13.9 µM (inactive); with Hs-578T, 25.8 µM (inactive); in the assay on K562, 21.3 µM (inactive). Moreover, the GI50 in the assay with KM12 was 18.6 µM (inactive); in the assay on LOX IMVI, 18.1 µM (inactive); with M14 it was 22 µM (inactive); in the assay with MDA-MB-231, 18.7 µM (inactive); in the assay on MDA-MB-435, 17.1 µM (inactive); with NCI-H522, 17.3 µM (inactive). The GI50 is 27.7 µM (inactive) with NCI/ADR-RES; 15 µM (inactive) in the assay on PC-3; 14.5 µM (inactive) with RXF 393; 22.9 µM (inactive) in the assay with SF-539; 27.6 µM (inactive) in the assay with SK-MEL-28; 44.3 µM (inactive) with SNB-19. The GI50 in the assay on U-251 is 16.2 µM (inactive).

Take `C=CCOc1ccccc1C1(O)c2ccccc2C2=NCCCN21` (centres undefined): the GI50 in the assay with A549 was > 100 µM (inactive); in the assay with HCT-15 it was greater than 100 µM; in the assay with HOP-92 it was 56.9 µM (inactive); in the assay on HT-29, 19.5 µM (inactive); with Hs-578T it was 77.8 µM (inactive); in the assay on K562 it was 45.3 µM (inactive). Besides, the GI50 in the assay with KM12 was 32.4 µM (inactive); in the assay with LOX IMVI, 38.1 µM (inactive); with M14, 18.7 µM (inactive); in the assay on MDA-MB-231, > 100 µM (inactive); in the assay with MDA-MB-435, 30.9 µM (inactive); in the assay with NCI/ADR-RES, > 100 µM (inactive). Besides, the GI50 in the assay on PC-3 was 20.7 µM (inactive); with SF-539, 17.6 µM (inactive); in the assay with SK-MEL-28, 20.4 µM (inactive); with SNB-19, 33.5 µM (inactive); in the assay with SR, > 100 µM (inactive); in the assay on U-251 it was 46.5 µM (inactive).

For the molecule `CCOC(=O)C1(C(=O)OCC)CCCN1C(=O)[C@H](CNC(=O)OC(C)(C)C)NC(=O)OCc1ccccc1`, the GI50 with A549 was > 100 µM (inactive); in the assay with HCT-15 it was greater than 100 µM; in the assay with HT-29, > 100 µM (inactive); in the assay on Hs-578T, > 100 µM (inactive); with K562, 32.8 µM (inactive); in the assay on KM12, > 100 µM (inactive). In addition, the GI50 with LOX IMVI, in the assay on M14, with MDA-MB-231, in the assay with MDA-MB-435, in the assay on NCI/ADR-RES and in the assay on PC-3 was > 100 µM (inactive) throughout. Also, the GI50 in the assay with RXF 393 was > 100 µM (inactive); with SF-539, > 100 µM (inactive); with SK-MEL-28, > 100 µM (inactive); with SNB-19, > 100 µM (inactive); in the assay on SR, 51.6 µM (inactive); in the assay with U-251 it was > 100 µM (inactive).

Turning to `C(#Cc1ccccc1)SC1=C(c2ccccc2)S/C(=C(\SC#Cc2ccccc2)c2ccccc2)S1`, the GI50 in the assay with A549 is > 100 µM (inactive); in the assay on HCT-15 it was greater than 100 µM; in the assay on HOP-92, > 100 µM (inactive); in the assay on HT-29, > 100 µM (inactive); in the assay with Hs-578T, > 100 µM (inactive); in the assay on K562, > 100 µM (inactive). The GI50 in the assay on KM12, in the assay on LOX IMVI, in the assay with M14, in the assay with MDA-MB-231, with MDA-MB-435 and with NCI-H522 was > 100 µM (inactive) throughout. Further, the GI50 in the assay on NCI/ADR-RES, in the assay on PC-3, in the assay on SF-539, in the assay with SK-MEL-28, in the assay with SNB-19 and in the assay with SR was > 100 µM (inactive) each time. In addition, the GI50 in the assay with U-251 is > 100 µM (inactive).

On to `CC(=O)[C@]12OC(=O)C3=C1[C@H](CC[C@@H]3C)[C@@H](C)C[C@H]2C=C(C)C`, for which the GI50 in the assay with A549 was 7.48 µM (inactive); in the assay on HCT-15, 7.96 µM; in the assay on HOP-92, 1.43 µM (inactive); in the assay on HT-29, 6.79 µM (inactive); in the assay on Hs-578T, 8.18 µM (inactive); in the assay on K562, 5.6 µM (inactive). In addition, the GI50 was 7.62 µM (inactive) with KM12; 7.93 µM (inactive) in the assay on LOX IMVI; 8.39 µM (inactive) in the assay on M14; 8.2 µM (inactive) with MDA-MB-231; 7.93 µM (inactive) in the assay with MDA-MB-435; 5.36 µM (inactive) in the assay with NCI-H522. The GI50 in the assay on NCI/ADR-RES is 9.12 µM (inactive); in the assay on PC-3 it was 9.2 µM (inactive); in the assay on SF-539, 9.14 µM (inactive); in the assay on SNB-19 it was 8.09 µM (inactive); with SR, 7.87 µM (inactive); in the assay with U-251 it was 7.8 µM (inactive).

On to `CCOC(=O)C(CC(C)C)NC(=O)CSc1nnc(COc2ccc(Cl)cc2)n1-c1ccccc1` (centres undefined), for which the GI50 with A549 was 21.2 µM (inactive); with HCT-15 it was 18.5 µM; in the assay on HOP-92, 18.6 µM (inactive); with HT-29, 18.5 µM (inactive); with Hs-578T, 22.3 µM (inactive); with K562, 19.3 µM (inactive). Also, the GI50 was 18 µM (inactive) in the assay on KM12; 14.9 µM (inactive) in the assay on LOX IMVI; 18 µM (inactive) in the assay with M14; 16.9 µM (inactive) in the assay on MDA-MB-231; 16.9 µM (inactive) in the assay with MDA-MB-435; 20.5 µM (inactive) in the assay on NCI/ADR-RES. Also, the GI50 was 17.1 µM (inactive) in the assay on PC-3; 16.6 µM (inactive) in the assay with RXF 393; 21.8 µM (inactive) in the assay on SF-539; 16.7 µM (inactive) in the assay with SK-MEL-28; 17.3 µM (inactive) in the assay on SNB-19; 2.3 µM (inactive) in the assay on SR. The GI50 with U-251 is 19.3 µM (inactive).

Turning to `O=[N+]([O-])c1ccccc1S(=O)(=O)N1CCCc2cc(Cl)ccc21`, the GI50 is 38.7 µM (inactive) in the assay with A549; 15.5 µM in the assay with HCT-15; 21.5 µM (inactive) in the assay on HOP-92; 9.35 µM (inactive) in the assay with HT-29; 50.8 µM (inactive) with Hs-578T; 3.46 µM (inactive) in the assay with K562. Besides, the GI50 in the assay on KM12 is 18.5 µM (inactive); in the assay with LOX IMVI it was 24.3 µM (inactive); in the assay with M14, 46.5 µM (inactive); in the assay on MDA-MB-231, > 56.5 µM (inactive); in the assay on MDA-MB-435, 4.46 µM (inactive); in the assay on NCI/ADR-RES, 18 µM (inactive). Further, the GI50 was 18 µM (inactive) in the assay on PC-3; 13.8 µM (inactive) in the assay on RXF 393; 32.4 µM (inactive) with SF-539; 61 µM (inactive) with SK-MEL-28; > 80.2 µM (inactive) in the assay on SNB-19; 5.75 µM (inactive) in the assay on SR.

Take `Cc1cc(N(CCC#N)CCC#N)ccc1/C=N/NC(=O)c1cc(Cl)ccc1O`: the GI50 with A549 was > 100 µM (inactive); with HCT-15, greater than 100 µM; in the assay on HT-29, > 100 µM (inactive); with Hs-578T, 59.7 µM (inactive); in the assay with M14 it was > 100 µM (inactive); with MDA-MB-231, > 100 µM (inactive). Besides, the GI50 in the assay with MDA-MB-435 is > 100 µM (inactive); with NCI-H522, 37.3 µM (inactive); with NCI/ADR-RES it was > 100 µM (inactive); with PC-3, > 100 µM (inactive); with RXF 393, > 100 µM (inactive); with SF-539, > 100 µM (inactive). The GI50 is > 100 µM (inactive) with SR and 49.3 µM (inactive) in the assay with U-251.

Turning to `Cc1nc2c(O)cc3c4c(n(Cc5ccccc5)c3c2nc1C)C(=O)CCC4`, the GI50 in the assay with A549 is 50.5 µM (inactive); with HCT-15, greater than 100 µM; in the assay with HOP-92, 15.4 µM (inactive); in the assay with HT-29, > 100 µM (inactive); with Hs-578T, 14.4 µM (inactive); with K562, 93.5 µM (inactive). The GI50 with KM12 is > 100 µM (inactive); with LOX IMVI it was 64.1 µM (inactive); in the assay with M14 it was 53.2 µM (inactive); with MDA-MB-231, > 100 µM (inactive); with MDA-MB-435 it was > 100 µM (inactive); in the assay on NCI/ADR-RES, 32.1 µM (inactive). In addition, the GI50 in the assay on PC-3 was 49.7 µM (inactive); with RXF 393, 5.46 µM (inactive); in the assay with SF-539 it was 17.5 µM (inactive); in the assay with SK-MEL-28, 22.5 µM (inactive); in the assay on SNB-19, 23.3 µM (inactive); in the assay with SR it was 18 µM (inactive). Moreover, the GI50 with U-251 was 12 µM (inactive).

As usually defined, the GI50 is the concentration that inhibits growth by half.
